Measured values taken from US5075289A, “9-R-azacyclic erythromycin antibiotics” (priority 1988, dated 1991).
Values after ≈ are worked out from the molar mass of the structure shown. Read-outs that look alike come from different tables or passages of the source.

How the values were obtained:
Type in all cases: cell-based
[1] = system: Staphylococcus aureus 45 RAR 2; assay: microbe, parasite or virus in culture; conditions: 45RAR2
Procedure: The antimicrobial spectra of a number of compounds of the invention were tested by the following method:
Twelve petri dishes containing successive aqueous dilutions of the test compound mixed with 10 ml of sterilized Brain Heart Infusion agar (Difco 0418-01-5) are prepared. Each plate is inoculated with 1:100 (or 1:10 for slow growing strains, primarily Micrococcus and Streptococcus) dilutions of up to 32 different microorganisms, using a Steers replicator block The inoculated plates are incubated at 35°-37° C. for 20-24 hours. In addition, a control plate, using BHI agar containing no test compound, is prepared and incubated at the beginning and end of each test.
An additional plate containing a compound having known susceptibility patterns for the organisms being tested and belonging to the same antibiotic class as the test compound is also prepared and incubated as a further control, as well as to provide test-to-test comparability. Erythromycin A was used for this purpose.
After incubation, each disk is read. The MIC is defined as the lowest concentration of drug yielding no growth, a slight haze, or sparsely isolated colonies on the inoculum spot as compared to the growth control.

[2] = system: Haemophilus influenzae 504; assay: In vitro antibacterial activity, agar dilution MIC; conditions: H. influenzae 504
How it was run: (§1)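 Test compound serially diluted in Brain Heart Infusion agar across twelve plates; inocula of 1:100 dilutions (1:10 for slow growers such as Streptococcus) applied by replicator. Plates incubated 20-24 h at 35°-37° C. MIC taken as lowest concentration giving no growth, slight haze or sparse isolated colonies versus drug-free control.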

[3] = system: Haemophilus influenzae SPK AMP R; assay: In vitro antibacterial activity, agar dilution MIC; conditions: H. influenzae SPK AMP R
How it was run: as §1

[4] = system: Haemophilus influenzae ATCC 19418; assay: In vitro antibacterial activity, agar dilution MIC; conditions: ATCC19418, H. influenzae ATCC 19418
How it was run: as §1

[5] = system: Haemophilus influenzae ATCC 9795; assay: In vitro antibacterial activity, agar dilution MIC; conditions: ATCC9795, H. influenzae ATCC 9795
How it was run: as §1

[6] = system: Haemophilus influenzae 503B; assay: In vitro antibacterial activity, agar dilution MIC; conditions: H. influenzae 503B
How it was run: as §1

[7] = system: Haemophilus influenzae 1177; assay: In vitro antibacterial activity, agar dilution MIC; conditions: H. influenzae 1177
How it was run: as §1

[8] = system: Haemophilus influenzae 1435; assay: In vitro antibacterial activity, agar dilution MIC; conditions: H. influenzae 1435
How it was run: as §1

[9] = system: Haemophilus influenzae 566A; assay: In vitro antibacterial activity, agar dilution MIC; conditions: H. influenzae 566A
How it was run: as §1

[10] = system: Staphylococcus aureus 642A; assay: In vitro antibacterial activity, agar dilution MIC; conditions: S. aureus 642A, Brain Heart Infusion agar, 20-24 hours, read-out: MIC
How it was run: as §1

[11] = system: Haemophilus influenzae 747C; assay: In vitro antibacterial activity, agar dilution MIC; conditions: H. influenzae 747C
How it was run: as §1

[12] = system: Haemophilus influenzae ATCC 10211; assay: In vitro antibacterial activity, agar dilution MIC; conditions: ATCC10211, H. influenzae ATCC 10211
How it was run: as §1

[13] = system: Staphylococcus aureus CMX 553; assay: In vitro antibacterial activity, agar dilution MIC; conditions: CMX553, S. aureus CMX 553, Brain Heart Infusion agar, 20-24 hours, read-out: MIC
How it was run: as §1

[14] = system: Streptococcus bovis A5169; assay: In vitro antibacterial activity, agar dilution MIC; conditions: read-out: MIC
How it was run: as §1

[15] = system: Streptococcus agalactiae CMX 508; assay: In vitro antibacterial activity, agar dilution MIC; conditions: CMX508, S. agalactiae CMX 508, Brain Heart Infusion agar, 20-24 hours, read-out: MIC
How it was run: as §1

[16] = system: Haemophilus influenzae SOL AMP R; assay: In vitro antibacterial activity, agar dilution MIC; conditions: H. influenzae SOL AMP R
How it was run: as §1

[17] = system: Micrococcus luteus ATCC 9341; assay: In vitro antibacterial activity, agar dilution MIC; conditions: ATCC9341, M. luteus ATCC 9341, Brain Heart Infusion agar, 20-24 hours, read-out: MIC
How it was run: as §1

[18] = system: Haemophilus influenzae 632A; assay: In vitro antibacterial activity, agar dilution MIC; conditions: H. influenzae 632A
How it was run: as §1

[19] = system: Haemophilus influenzae DILL AMP R; assay: In vitro antibacterial activity, agar dilution MIC; conditions: H. influenzae DILL AMP R
How it was run: as §1

[20] = system: Streptococcus pyogenes 930 CONST; assay: In vitro antibacterial activity, agar dilution MIC; conditions: 930CONST
How it was run: as §1

[21] = system: Staphylococcus epidermidis 3519; assay: In vitro antibacterial activity, agar dilution MIC; conditions: S. epidermidis 3519, Brain Heart Infusion agar, 20-24 hours, read-out: MIC
How it was run: as §1

[22] = system: Staphylococcus aureus A5177; assay: In vitro antibacterial activity, agar dilution MIC; conditions: S. aureus A5177, Brain Heart Infusion agar, 20-24 hours, read-out: MIC
How it was run: as §1

[23] = system: Micrococcus luteus ATCC 4698; assay: In vitro antibacterial activity, agar dilution MIC; conditions: ATCC4698, read-out: MIC
How it was run: as §1

[24] = system: Streptococcus pyogenes 2548 INDUC; assay: In vitro antibacterial activity, agar dilution MIC
How it was run: as §1

Escherichia coli DC-2 = assay: In vitro antibacterial activity, agar dilution MIC; conditions: DC2
How it was run: as §1

Staphylococcus aureus 45 = assay: In vitro antibacterial activity, agar dilution MIC; conditions: S. aureus 45, Brain Heart Infusion agar, 20-24 hours, read-out: MIC
How it was run: as §1

Escherichia coli H560 = assay: In vitro antibacterial activity, agar dilution MIC; conditions: E. coli H560, Brain Heart Infusion agar, 20-24 hours, read-out: MIC
How it was run: as §1

[25] = system: Staphylococcus aureus NCTC 10649; assay: In vitro antibacterial activity, agar dilution MIC; conditions: NCTC10649, S. aureus NCTC 10649, Brain Heart Infusion agar, 20-24 hours, read-out: MIC
How it was run: as §1

Escherichia coli Juhl = assay: In vitro antibacterial activity, agar dilution MIC
How it was run: as §1

[26] = system: Streptococcus pyogenes EES61; assay: In vitro antibacterial activity, agar dilution MIC; conditions: S. pyogenes EES61, Brain Heart Infusion agar, 20-24 hours, read-out: MIC
How it was run: as §1

[27] = system: Enterococcus faecium ATCC 8043; assay: In vitro antibacterial activity, agar dilution MIC; conditions: ATCC8043
How it was run: as §1

[28] = system: Staphylococcus aureus ATCC 6538P; assay: In vitro antibacterial activity, agar dilution MIC; conditions: ATCC6538P
How it was run: as §1

Escherichia coli SS = assay: In vitro antibacterial activity, agar dilution MIC; conditions: read-out: MIC
How it was run: as §1

[29] = system: Haemophilus influenzae 751; assay: In vitro antibacterial activity, agar dilution MIC; conditions: H. influenzae 751
How it was run: as §1

[30] = system: Haemophilus influenzae 519A; assay: In vitro antibacterial activity, agar dilution MIC; conditions: H. influenzae 519A
How it was run: as §1

[31] = system: Haemophilus influenzae 588A; assay: In vitro antibacterial activity, agar dilution MIC; conditions: H. influenzae 588A
How it was run: as §1

[32] = system: Haemophilus influenzae 667A; assay: In vitro antibacterial activity, agar dilution MIC; conditions: H. influenzae 667A
How it was run: as §1

Row | SMILES | MIC [1] [µg/mL] | MIC [2] [µg/mL] | MIC [3] [µg/mL] | MIC [4] [µg/mL] | MIC [5] [µg/mL] | MIC [6] [µg/mL] | MIC [7] [µg/mL] | MIC [8] [µg/mL] | MIC [9] [µg/mL] | MIC [10] [µg/mL] | MIC [11] [µg/mL] | MIC [12] [µg/mL] | MIC [13] [µg/mL] | MIC [15] [µg/mL] | MIC [16] [µg/mL] | MIC [17] [µg/mL] | MIC [18] [µg/mL] | MIC [19] [µg/mL] | MIC [20] [µg/mL] | MIC [21] [µg/mL] | other results
1 | CC[C@H]1OC(=O)[C@H](C)[C@@H](O[C@H]2C[C@@](C)(OC)[C@@H](O)[C@H](C)O2)[C@H](C)[C@@H](O[C@@H]2O[C@H](C)C[C@H](N(C)C)[C@H]2O)[C@](C)(O)C[C@@H](C)[C@@H](N2CCC(C)(C)CC2)[C@H](C)[C@@H](O)[C@]1(C)O [Example 7] | 0.39 (≈ 0.469 µM) | 1 (≈ 1.2 µM) | 1 (≈ 1.2 µM) | 2 (≈ 2.41 µM) | 1 (≈ 1.2 µM) | 1 (≈ 1.2 µM) | 0.25 (≈ 0.301 µM) | 0.5 (≈ 0.602 µM) | 2 (≈ 2.41 µM) | 0.39 (≈ 0.469 µM) | 1 (≈ 1.2 µM) | 1 (≈ 1.2 µM) | 0.39 (≈ 0.469 µM) | ≤ 0.05 | 0.5 (≈ 0.602 µM) | ≤ 0.05 | 1 (≈ 1.2 µM) | 1 (≈ 1.2 µM) | > 100 | 0.39 (≈ 0.469 µM) | MIC ([14]; S. bovis A5169, Brain Heart Infusion agar, 20-24 hours): ≤ 0.05 µg/mL; MIC [22]: 3.1 µg/mL (≈ 3.73 µM); MIC [23]: 0.2 µg/mL (≈ 0.241 µM); MIC ([24]; S. pyogenes 2548 INDUC, Brain Heart Infusion agar, 20-24 hours, read-out: MIC): 6.2 µg/mL (≈ 7.46 µM); MIC (Escherichia coli DC-2): 12.5 µg/mL (≈ 15 µM); MIC (Staphylococcus aureus 45): 0.2 µg/mL (≈ 0.241 µM); MIC (Escherichia coli H560): 3.1 µg/mL (≈ 3.73 µM); MIC [25]: 0.39 µg/mL (≈ 0.469 µM); MIC (Escherichia coli Juhl): 12.5 µg/mL (≈ 15 µM); MIC [26]: 0.1 µg/mL (≈ 0.12 µM); MIC [27]: 0.1 µg/mL (≈ 0.12 µM); MIC [28]: 0.39 µg/mL (≈ 0.469 µM); MIC (Escherichia coli SS): 0.2 µg/mL (≈ 0.241 µM); MIC [29]: 1 µg/mL (≈ 1.2 µM); MIC [30]: 0.5 µg/mL (≈ 0.602 µM); MIC [31]: 1 µg/mL (≈ 1.2 µM); MIC [32]: 1 µg/mL (≈ 1.2 µM)
2 | CC[C@H]1OC(=O)[C@H](C)[C@@H](O[C@H]2C[C@@](C)(OC)[C@@H](O)[C@H](C)O2)[C@H](C)[C@@H](O[C@@H]2O[C@H](C)C[C@H](N(C)C)[C@H]2O)[C@](C)(O)C[C@@H](C)[C@@H](N2CCC(C)CC2)[C@H](C)[C@@H](O)[C@]1(C)O [Example 6] | 0.78 (≈ 0.955 µM) | 1 (≈ 1.22 µM) | 1 (≈ 1.22 µM) | 2 (≈ 2.45 µM) | 1 (≈ 1.22 µM) | 1 (≈ 1.22 µM) | 0.25 (≈ 0.306 µM) | 1 (≈ 1.22 µM) | 2 (≈ 2.45 µM) | 0.39 (≈ 0.477 µM) | 1 (≈ 1.22 µM) | 1 (≈ 1.22 µM) | 0.39 (≈ 0.477 µM) | 0.1 (≈ 0.122 µM) | 1 (≈ 1.22 µM) | 0.05 (≈ 0.0612 µM) | 1 (≈ 1.22 µM) | 1 (≈ 1.22 µM) | > 100 | 0.39 (≈ 0.477 µM) | MIC [14]: 0.02 µg/mL (≈ 0.0245 µM); MIC [22]: 3.1 µg/mL (≈ 3.79 µM); MIC [23]: 0.2 µg/mL (≈ 0.245 µM); MIC ([24]; 2548INDUC): 3.1 µg/mL (≈ 3.79 µM); MIC (Escherichia coli DC-2): 25 µg/mL (≈ 30.6 µM); MIC (Staphylococcus aureus 45): 0.2 µg/mL (≈ 0.245 µM); MIC (Escherichia coli H560): 3.1 µg/mL (≈ 3.79 µM); MIC [25]: 0.78 µg/mL (≈ 0.955 µM); MIC (Escherichia coli Juhl): 12.5 µg/mL (≈ 15.3 µM); MIC [26]: 0.1 µg/mL (≈ 0.122 µM); MIC [27]: 0.1 µg/mL (≈ 0.122 µM); MIC [28]: 0.39 µg/mL (≈ 0.477 µM); MIC (Escherichia coli SS): 0.2 µg/mL (≈ 0.245 µM); MIC [29]: 1 µg/mL (≈ 1.22 µM); MIC [30]: 0.5 µg/mL (≈ 0.612 µM); MIC [31]: 1 µg/mL (≈ 1.22 µM); MIC [32]: 2 µg/mL (≈ 2.45 µM)
